Test results as given in paper PMC9332833 (Cancers, 2022).
Entries after “also recorded” stand apart in the source; their conditions may differ.

Legend:
K562 cells [1] = experiment: Annexin V-FITC/PI apoptosis measurement, K562; format: cell-based, human; conditions: 5 µM, 24 h
Procedure: Cells were seeded in 6-well plates (K562 or K562-MDR1) or in 24-well plates (CD34^+ cells). After 24 h, BK124.1 or DMSO was added. After a further 24 h, cells were stained using the Annexin V-FITC kit for the detection of apoptosis (BD, Franklin Lakes, NJ, USA) and immediately analyzed on a BD FACSCalibur using CellQuest software (BD, Franklin Lakes, NJ, USA). […]
incubated overnight at 37 °C and analyzed using an iMark Microp late absorbance reader (Bio-Rad, Hercules, CA, USA). Results were calculated relative to control cells treated with DMSO only.
[…] CD34+ cells were plated at a concentration of 2.5 × 10^5 cells/mL in a 24-well plate. […] A f t e r a further 24 hours, cells were harvested and stained according to the manufacturer's protocol using the Annexin V-FITC kit for the detection of apoptosis (BD, Franklin Lakes, NJ, USA). Stained cells were immediately analyzed on a BD FACSCalibur using CellQuest softwa re (BD, Franklin Lakes, NJ, USA).
Cells were seeded at a concentration of 1-2 × 10^5 cells/mL in a 6-well plate. After 24 hours of pre-incubation, BK124.1 in DMSO was added to the cells (vDMSO/vmedium), and incubated for 24 or 48 hours.
After incubation, cells were washed twice with ice-cold PBS (Mg2+ and Ca2+-free), resuspended in ice-cold 70% ethanol, and placed at -20 °C for 24 hours. […]
Flow cytometry analysis of CD243 (P-glycoprotein) […]

[2] = test system: CD34+/CD38+ cells from CML patients; experiment: Annexin V-FITC/PI apoptosis in CD34+/CD38+ subpopulation; format: cell-based, human; conditions: 2.5 or 5 µM, 24 h
Procedure: Pre-cultured cells were treated with BK124.1 or DMSO for 24 h. For purity analysis, cells were stained with anti-human CD34-APC antibody, anti-human CD38-PE (Biolegend, San Diego, CA, USA), and propidium iodide according to the manufacturers’ protocols. For apoptosis analysis, cells were additionally stained with Annexin V-FITC kit (BD, Franklin Lakes, NJ, USA) according to the manufacturer’s protocol. Appropriate isotype controls were included. Stained cells were immediately analyzed on a BD LSRFortessa flow cytometer with FlowJo software (BD, Franklin Lakes, NJ, USA), after exclusion of doublets. Purity was analyzed on live cells only, and apoptosis separately for each population of cells (CD34^+/CD38^+ or CD34^+/CD38^−).
[…] Next, we isolated CD34+ cells (EasySep™ Human CD34 Positive Selection Kit II, StemCell Technologies, Vancouver, Canada), counted them and assessed viability with Muse Cell Analyzer (Merck Millipore, Burlington, MA, USA). […] The purity of the live CD34+ fraction was assessed by flow cytometry with anti-human CD34-APC antibody, compared with an appropriate isotype control (Biolegend, San Diego, CA, USA), and propidium iodide (Sigma-Aldrich, St. Louis, MO, USA). […]
[…] In both cases stained cells were immediately analyzed on a BD LSRFortessa flow cytometer and analyzed with FlowJo software (BD, Franklin Lakes, NJ, USA). […]

K562 cells [3] = experiment: K562 in BK124.1 long term experiment (6 months), MDR1 induction; format: cell-based, human; conditions: 1 µM or 2 µM for at least 6 months
HUVEC = test system: HUVEC; design: method as in PMID 26902600, PMID 31487824; conditions: cited from earlier work

SMILES: CCC12C(=O)C(CC)(C(c3ccccc3)=C1c1ccccc1)C1C(=O)N(CC(O)CNC(C)C)C(=O)C12 (stereo not shown) [BK124.1, 4-[2-hydroxy-3-(propan-2-ylamino)propyl]-1,7-diethyl-8,9-diphenyl-4-azatricyclo [5.2.1.02,6]dec-8-ene-3,5,10-trione]
- Apoptosis (K562 cells [1]): 61.2%
- Apoptosis in CD34+/CD38+ cells compared with CD34+/CD38- cells [2]: even higher apoptosis
- Induction of MDR1 in standard K562 cells (K562 cells [3]): not able to induce MDR1; also recorded: unable to induce MDR1 expression
- Toxicity to normal cells (HUVEC): non-toxic
